Inhibition data for 16 compounds are collected here from US20260297081A1, “COMPOUNDS AND METHODS OF TREATING CANCERS” (Cullgen Inc., priority 2023, published 2026).

This assay deals with CDK4 (Homo sapiens, UniProt P11802+Q16531). Briefly: CDK4 percentage degradation in Calu-1 cells (Table 6). Format: cell-based. Set-up: Cells that express cyclin D1-3 and CDK4/6 proteins were treated with heterobifunctional compounds; endogenous in cells; host or cells: Calu-1. The note with it: 16 hours; for inhibition at 0.04 µM: 40 nM; for inhibition at 0.2 µM: 200 nM. A digest of the protocol:
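Percentage degradation of Cyclin D1 and CDK4 derived from densitometry of ECL Western blots on lysates of Calu-1 cells. Treatment was 16 h with compound at either 40 nM or 200 nM.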

CDK4, sequence (P11802 2-303 limits assumed): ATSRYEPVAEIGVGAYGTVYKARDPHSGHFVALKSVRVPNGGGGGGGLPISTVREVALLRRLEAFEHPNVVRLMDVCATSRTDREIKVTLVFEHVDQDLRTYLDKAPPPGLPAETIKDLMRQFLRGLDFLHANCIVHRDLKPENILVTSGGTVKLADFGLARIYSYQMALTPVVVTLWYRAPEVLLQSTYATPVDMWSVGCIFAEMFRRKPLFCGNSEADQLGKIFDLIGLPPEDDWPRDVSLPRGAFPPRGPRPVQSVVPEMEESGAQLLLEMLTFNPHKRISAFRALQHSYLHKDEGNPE
CDK4, sequence (P24385 whole entry partner): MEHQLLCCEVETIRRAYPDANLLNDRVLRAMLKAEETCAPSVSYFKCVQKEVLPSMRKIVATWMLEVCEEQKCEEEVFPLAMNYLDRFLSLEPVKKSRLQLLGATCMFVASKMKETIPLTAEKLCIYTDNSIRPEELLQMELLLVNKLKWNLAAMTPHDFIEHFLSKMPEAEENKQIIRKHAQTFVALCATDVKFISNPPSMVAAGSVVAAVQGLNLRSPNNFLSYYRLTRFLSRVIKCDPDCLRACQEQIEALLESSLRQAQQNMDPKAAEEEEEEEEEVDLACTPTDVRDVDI
CDK4, sequence (Q16531 2-1140 limits assumed): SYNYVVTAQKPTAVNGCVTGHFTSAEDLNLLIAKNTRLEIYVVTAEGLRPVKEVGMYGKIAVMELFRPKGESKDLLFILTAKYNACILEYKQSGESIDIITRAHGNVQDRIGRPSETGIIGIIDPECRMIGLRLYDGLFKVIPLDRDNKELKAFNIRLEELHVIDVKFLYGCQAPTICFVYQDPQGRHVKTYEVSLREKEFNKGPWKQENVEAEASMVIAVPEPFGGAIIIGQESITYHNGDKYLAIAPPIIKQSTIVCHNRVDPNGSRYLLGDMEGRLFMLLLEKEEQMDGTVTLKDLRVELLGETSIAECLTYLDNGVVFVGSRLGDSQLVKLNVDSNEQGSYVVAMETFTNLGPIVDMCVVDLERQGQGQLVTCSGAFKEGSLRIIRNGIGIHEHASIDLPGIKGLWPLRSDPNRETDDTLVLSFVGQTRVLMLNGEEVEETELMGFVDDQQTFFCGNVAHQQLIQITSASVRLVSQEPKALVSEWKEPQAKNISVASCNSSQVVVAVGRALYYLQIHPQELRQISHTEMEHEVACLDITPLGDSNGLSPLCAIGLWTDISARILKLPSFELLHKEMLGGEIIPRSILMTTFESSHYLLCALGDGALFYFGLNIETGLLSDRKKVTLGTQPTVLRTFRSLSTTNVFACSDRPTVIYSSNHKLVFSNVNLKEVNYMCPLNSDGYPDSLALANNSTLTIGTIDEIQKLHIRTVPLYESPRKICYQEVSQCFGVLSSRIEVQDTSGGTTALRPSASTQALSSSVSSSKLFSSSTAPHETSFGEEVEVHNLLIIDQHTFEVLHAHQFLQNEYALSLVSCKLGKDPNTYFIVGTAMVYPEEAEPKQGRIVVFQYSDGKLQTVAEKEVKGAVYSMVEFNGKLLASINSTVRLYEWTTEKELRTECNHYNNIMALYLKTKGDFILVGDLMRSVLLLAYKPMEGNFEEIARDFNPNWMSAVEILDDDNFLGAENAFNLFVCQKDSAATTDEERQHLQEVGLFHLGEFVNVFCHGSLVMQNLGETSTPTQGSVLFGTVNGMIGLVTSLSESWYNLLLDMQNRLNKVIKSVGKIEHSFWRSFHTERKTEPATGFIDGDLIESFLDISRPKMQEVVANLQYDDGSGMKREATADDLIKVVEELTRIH

As a reminder, the inhibition is the share of the control response that was lost under treatment. Lower therefore signals a response near the control. In turn, `CNc1ccc(C(=O)Nc2cccc(N(C)C)n2)c(NC2CC3(CC(NC(=O)CN4CCN(c5ccc(Nc6ncc7c(C)c(C(C)=O)c(=O)n(C8CCCC8)c7n6)nc5)CC4)C3)C2)n1` (centres unmarked) [CPD-88, 2-((6-(2-(4-(6-((6-Acetyl-8-cyclopentyl-5-methyl-7-oxo-7,8-dihydropyrido[2,3-d]pyrimidin-2-yl)amino)pyridin-3-yl)piperazin-1-yl)acetamido)spiro[3.3]heptan-2-yl)amino)-N-(6-(dimethylamino)pyridin-2-yl)-6-(methylamino)nicotinamide] returned an inhibition at 0.04 µM of 30 to 50% and an inhibition at 0.2 µM of 50 to 80%.

Compound `CNc1ccc(C(=O)Nc2ccc(C)c(=O)[nH]2)c(NCCCCCNC(=O)CN2CCN(c3ccc(Nc4ncc5c(C)c(C(C)=O)c(=O)n(C6CCCC6)c5n4)nc3)CC2)n1` [CPD-123, 2-((5-(2-(4-(6-((6-Acetyl-8-cyclopentyl-5-methyl-7-oxo-7,8-dihydropyrido[2,3-d]pyrimidin-2-yl)amino)pyridin-3-yl)piperazin-1-yl)acetamido)pentyl)amino)-N-(5-methyl-6-oxo-1,6-dihydropyridin-2-yl)-6-(methylamino)nicotinamide] came in with an inhibition at 0.04 µM of under 30% and an inhibition at 0.2 µM of 50 to 80%.

The compound `CNc1ccc(C(=O)Nc2ccn(C)c2)c(NC2CC3(CC(NC(=O)CN4CCN(c5ccc(Nc6ncc7c(C)c(C(C)=O)c(=O)n(C8CCCC8)c7n6)nc5)CC4)C3)C2)n1` (centres unmarked) [CPD-183, 2-((6-(2-(4-(6-((6-acetyl-8-cyclopentyl-5-methyl-7-oxo-7,8-dihydropyrido[2,3-d]pyrimidin-2-yl)amino)pyridin-3-yl)piperazin-1-yl)acetamido)spiro[3.3]heptan-2-yl)amino)-N-(1-methyl-1H-pyrrol-3-yl)-6-(methylamino)nicotinamide] gave an inhibition at 0.04 µM of 50 to 80% and an inhibition at 0.2 µM of 50 to 80%.

The compound `CNc1ccc(C(=O)Nc2ccc(N(C)C)nn2)c(NC2CC3(C2)CC(OC(C)(C)C(=O)N2CCN(c4ccc(Nc5ncc6c(C)c(C(C)=O)c(=O)n(C7CCCC7)c6n5)nc4)CC2)C3)n1` (centres unmarked) [CPD-216, 2-((6-((1-(4-(6-((6-acetyl-8-cyclopentyl-5-methyl-7-oxo-7,8-dihydropyrido[2,3-d]pyrimidin-2-yl)amino)pyridin-3-yl)piperazin-1-yl)-2-methyl-1-oxopropan-2-yl)oxy)spiro[3.3]heptan-2-yl)amino)-N-(6-(dimethylamino)pyridazin-3-yl)-6-(methylamino)nicotinamide] had an inhibition at 0.04 µM of 30 to 50% and an inhibition at 0.2 µM of 50 to 80%.

Compound `CNc1ccc(C(=O)Nc2ccccn2)c(NC2CC3(CC(NC(=O)CN4CCN(c5ccc(Nc6ncc7c(C)c(C(C)=O)c(=O)n(C8CCCC8)c7n6)nc5)CC4)C3)C2)n1` (centres unmarked) [CPD-137, 2-((6-(2-(4-(6-((6-Acetyl-8-cyclopentyl-5-methyl-7-oxo-7,8-dihydropyrido[2,3-d]pyrimidin-2-yl)amino)pyridin-3-yl)piperazin-1-yl)acetamido)spiro[3.3]heptan-2-yl)amino)-6-(methylamino)-N-(pyridin-2-yl)nicotinamide] had an inhibition at 0.04 µM of 30 to 50% and an inhibition at 0.2 µM of 30 to 50%.

`CNc1ccc(C(=O)Nc2ccc(N(C)C)nn2)c(NC2CCC(NC(=O)CN3CCN(c4ccc(Nc5ncc6c(C)c(C(C)=O)c(=O)n(C7CCCC7)c6n5)nc4)CC3)CC2)n1` (centres unmarked) [CPD-130, 2-((4-(2-(4-(6-((6-Acetyl-8-cyclopentyl-5-methyl-7-oxo-7,8-dihydropyrido[2,3-d]pyrimidin-2-yl)amino)pyridin-3-yl)piperazin-1-yl)acetamido)cyclohexyl)amino)-N-(6-(dimethylamino)pyridazin-3-yl)-6-(methylamino)nicotinamide] displayed an inhibition at 0.04 µM of 50 to 80% and an inhibition at 0.2 µM of 50 to 80%.

Turning to `CCc1ccc(C(=O)Nc2cc(C)n(C)n2)c(NC2CC(CNC(=O)CN3CCN(c4ccc(Nc5ncc6c(C)c(C(C)=O)c(=O)n(C7CCCC7)c6n5)nc4)CC3)C2)n1` (centres unmarked) [CPD-210, 2-((3-((2-(4-(6-((6-acetyl-8-cyclopentyl-5-methyl-7-oxo-7,8-dihydropyrido[2,3-d]pyrimidin-2-yl)amino)pyridin-3-yl)piperazin-1-yl)acetamido)methyl)cyclobutyl)amino)-N-(1,5-dimethyl-1H-pyrazol-3-yl)-6-ethylnicotinamide], the inhibition at 0.04 µM is 30 to 50% and the inhibition at 0.2 µM lay in the range of 50 to 80%.

In turn, `CNc1ccc(C(=O)Nc2cccc(C)n2)c(NC2CC(NC(=O)CN3CCN(c4ccc(Nc5ncc6c(C)c(C(C)=O)c(=O)n(C7CCCC7)c6n5)nc4)CC3)C2)n1` (centres unmarked) [CPD-196, 2-((3-(2-(4-(6-((6-acetyl-8-cyclopentyl-5-methyl-7-oxo-7,8-dihydropyrido[2,3-d]pyrimidin-2-yl)amino)pyridin-3-yl)piperazin-1-yl)acetamido)cyclobutyl)amino)-6-(methylamino)-N-(6-methylpyridin-2-yl)nicotinamide] came in with an inhibition at 0.04 µM of under 30% and an inhibition at 0.2 µM of 30 to 50%.

Regarding `CNc1ccc(C(=O)Nc2cccc(C3CC3)n2)c(NC2CC3(C2)CN(C(=O)C(C)(C)N2CCN(c4ccc(Nc5ncc6c(C)c(C(C)=O)c(=O)n(C7CCCC7)c6n5)nc4)CC2)C3)n1` [CPD-175, 2-((2-(2-(4-(6-((6-acetyl-8-cyclopentyl-5-methyl-7-oxo-7,8-dihydropyrido[2,3-d]pyrimidin-2-yl)amino)pyridin-3-yl)piperazin-1-yl)-2-methylpropanoyl)-2-azaspiro[3.3]heptan-6-yl)amino)-N-(6-cyclopropylpyridin-2-yl)-6-(methylamino)nicotinamide], the inhibition at 0.04 µM is under 30% and the inhibition at 0.2 µM lay in the range of 50 to 80%.

Regarding `CC(=O)c1c(C)c2cnc(Nc3ccc(N4CCN(CC(=O)NC5CC6(C5)CC(Nc5nc(C)ccc5C(=O)Nc5cccc(C)n5)C6)CC4)cn3)nc2n(C2CCCC2)c1=O` (centres unmarked) [CPD-191, 2-((6-(2-(4-(6-((6-acetyl-8-cyclopentyl-5-methyl-7-oxo-7,8-dihydropyrido[2,3-d]pyrimidin-2-yl)amino)pyridin-3-yl)piperazin-1-yl)acetamido)spiro[3.3]heptan-2-yl)amino)-6-methyl-N-(6-methylpyridin-2-yl)nicotinamide], the inhibition at 0.04 µM was under 30% and the inhibition at 0.2 µM lay in the range of 30 to 50%.

On to `CC(=O)c1c(C)c2cnc(Nc3ccc(N4CCN(CC(=O)NCCCCCNc5nc(C(F)(F)F)ccc5C(=O)Nc5ccc(N(C)C)nn5)CC4)cn3)nc2n(C2CCCC2)c1=O` [CPD-68, 2-((5-(2-(4-(6-((6-Acetyl-8-cyclopentyl-5-methyl-7-oxo-7,8-dihydropyrido[2,3-d]pyrimidin-2-yl)amino)pyridin-3-yl)piperazin-1-yl)acetamido)pentyl)amino)-N-(6-(dimethylamino)pyridazin-3-yl)-6-(trifluoromethyl)nicotinamide], for which the inhibition at 0.04 µM lay within 30 to 50% and the inhibition at 0.2 µM is 50 to 80%.

`CNc1ccc(C(=O)Nc2ccc(N(C)C)nn2)c(NC2CC(CNC(=O)N3CCN(c4ccc(Nc5ncc6c(C)c(C(C)=O)c(=O)n(C7CCCC7)c6n5)nc4)CC3)C2)n1` (centres unmarked) [CPD-166, 4-(6-((6-acetyl-8-cyclopentyl-5-methyl-7-oxo-7,8-dihydropyrido[2,3-d]pyrimidin-2-yl)amino)pyridin-3-yl)-N-((3-((3-((6-(dimethylamino)pyridazin-3-yl)carbamoyl)-6-(methylamino)pyridin-2-yl)amino)cyclobutyl)methyl)piperazine-1-carboxamide] registered an inhibition at 0.04 µM of 50 to 80% and an inhibition at 0.2 µM of 50 to 80%.

Regarding `CNc1ccc(C(=O)Nc2ccc(N(C)C)nn2)c(NC2CC3(C2)CN(C(=O)N2CCN(c4ccc(Nc5ncc6c(C)c(C(C)=O)c(=O)n(C7CCCC7)c6n5)nc4)CC2)C3)n1` [CPD-133, 2-((2-(4-(6-((6-Acetyl-8-cyclopentyl-5-methyl-7-oxo-7,8-dihydropyrido[2,3-d]pyrimidin-2-yl)amino)pyridin-3-yl)piperazine-1-carbonyl)-2-azaspiro[3.3]heptan-6-yl)amino)-N-(6-(dimethylamino)pyridazin-3-yl)-6-(methylamino)nicotinamide], the inhibition at 0.04 µM lay in the range of 30 to 50% and the inhibition at 0.2 µM was in the range of 50 to 80%.

As for `CNc1ccc(C(=O)Nc2cccc(C)n2)c(NC2CC3(C2)CN(C(=O)C(C)(C)N2CCN(c4ccc(Nc5ncc6c(C)c(C(C)=O)c(=O)n(C7CCCC7)c6n5)nc4)CC2)C3)n1` [CPD-176, 2-((2-(2-(4-(6-((6-acetyl-8-cyclopentyl-5-methyl-7-oxo-7,8-dihydropyrido[2,3-di]pyrimidin-2-yl)amino)pyridin-3-yl)piperazin-1-yl)-2-methylpropanoyl)-2-azaspiro[3.3]heptan-6-yl)amino)-6-(methylamino)-N-(6-methylpyridin-2-yl)nicotinamide], the inhibition at 0.04 µM was under 30% and the inhibition at 0.2 µM fell in the range of 50 to 80%.

Consider `CNc1ccc(C(=O)Nc2cc(C3CC3)n(C)n2)c(NC2CC3(CC(NC(=O)CN4CCN(c5ccc(Nc6ncc7c(C)c(C(C)=O)c(=O)n(C8CCCC8)c7n6)nc5)CC4)C3)C2)n1` (centres unmarked) [CPD-98, 2-((6-(2-(4-(6-((6-Acetyl-8-cyclopentyl-5-methyl-7-oxo-7,8-dihydropyrido[2,3-d]pyrimidin-2-yl)amino)pyridin-3-yl)piperazin-1-yl)acetamido)spiro[3.3]heptan-2-yl)amino)-N-(5-cyclopropyl-1-methyl-1H-pyrazol-3-yl)-6-(methylamino)nicotinamide], for which the inhibition at 0.04 µM lay within 30 to 50% and the inhibition at 0.2 µM was in the range of 50 to 80%.

`CNc1ccc(C(=O)Nc2ccc(N(C)C)nn2)c(N2CCC(CCNC(=O)CN3CCN(c4ccc(Nc5ncc6c(C)c(C(C)=O)c(=O)n(C7CCCC7)c6n5)nc4)CC3)CC2)n1` [CPD-42, 2-(4-(2-(2-(4-(6-((6-Acetyl-8-cyclopentyl-5-methyl-7-oxo-7,8-dihydropyrido[2,3-d]pyrimidin-2-yl)amino)pyridin-3-yl)piperazin-1-yl)acetamido)ethyl)piperidin-1-yl)-N-(6-(dimethylamino)pyridazin-3-yl)-6-(methylamino)nicotinamide] registered an inhibition at 0.04 µM of under 30% and an inhibition at 0.2 µM of under 30%.
